The test system of this experiment is A673 NR0B1-luciferase reporter, viability-normalised luminescence. Briefly: suppressors of NR0B1-promoter luciferase reporter, dose response, EWS/Fli inhibitor project, luciferase luminescence, A673 cells, cherry-pick (AID 686920).

Values joined by “and” are separate entries in the source; they are usually repeats but may differ in a detail not shown here. Equal entries are not always repeated.

Regarding `COC(=O)C[C@@H]1CC[C@@H]2[C@@H](COc3ccc(NC(=O)Nc4ccc(C#N)cc4)cc3C(=O)N2C)O1`, the AC35 was 56.2 µM. Regarding `COc1ccc(OC)c(-c2nnc3n2N=C(c2ccc(OC)c(OC4CCOC4)c2)CS3)c1` (centres undefined), the AC35 was 6.56 µM. In the case of `Cc1ccc(/C=N/Nc2ccnc3cc(Cl)ccc23)c(C)c1`, the AC35 was 15.3 µM. Take `Cc1cc(C(=O)Nc2ccc3c(c2)C(=O)N(C)[C@@H]2CC[C@H](CC(=O)N[C@H](C)c4ccccc4)O[C@H]2CO3)no1`: the AC35 was 10.2 µM.

`C[C@H]1CN([C@@H](C)CO)S(=O)(=O)c2ccc(C#CC(C)(C)O)cc2O[C@@H]1CN(C)Cc1ccc(-c2ccccc2)cc1`: the AC35 was 1.09 µM.

As to `Cc1ccc(S(=O)(=O)Nc2ccc3c(c2)C(=O)N([C@@H](C)CO)C[C@@H](C)[C@H](CN(C)Cc2ccc(C(F)(F)F)cc2)OCCCC[C@H](C)O3)cc1`, the AC35 was 7.44 µM. Regarding `CC(=O)c1ccc(N=C2C(=O)Nc3ccccc32)cc1`, the AC35 is 19.3 µM. Then `COc1ccc(OC)c(-c2nnc3n2N=C(c2ccc(OC)c(OC4CCCC4)c2)CS3)c1`, with 12.6 µM; and `CC(C)Oc1ccc(Br)cc1C(=O)N/N=C/c1c[nH]c2ccccc12`, with 17.2 µM. Regarding `O=C1NC(=O)N(CCc2ccc(F)cc2)C(=O)/C1=C/C=C/c1ccccc1`, the AC35 is 2.66 µM. Under `C[C@H]1CN([C@@H](C)CO)C(=O)Cc2cc(NC(=O)CCC(F)(F)F)ccc2O[C@H]1CN(C)Cc1ccc(C(=O)Nc2ccccc2N)cc1` stands 6.66 µM. Under `N#C[C@H]1N[C@H](CO)[C@H]1c1ccc(C#Cc2ccc(F)cc2)cc1` stands 0.123 µM; under `O=C1C(=O)N(CCS(=O)(=O)c2ccccc2)c2ccccc21`, 20.7 µM. Then `CN=c1scc(-c2ccccc2F)n1/N=C/c1ccc(O)c(O)c1O`, with 15.7 µM. Take `O=C(Nc1ccc(OC(=O)N2CCCCC2)cc1)N1CCOCC1`: the AC35 is 4.3 µM. With `CCN1CCS/C1=C\C=C\C1=[N+](CC)CCS1`, the AC35 was 12.3 µM. Consider `C[C@@H]1CN([C@@H](C)CO)C(=O)c2cc(N(C)C)ccc2O[C@H]1CN(C)Cc1ccc(C(=O)Nc2ccccc2N)cc1`, for which the AC35 is 12.7 µM.

With `COc1ccccc1C(CCNCc1ccc(N(C)C)cc1)c1ccc(OC(C)C)cc1` (centres undefined), the AC35 is 24.9 µM. Under `CN(Cc1cnc2nc(N)nc(N)c2n1)c1ccc(C(=O)N[C@@H](CCC(=O)O)C(=O)O)cc1` stands less than 0.03 µM; under `COC(=O)C1=C(C)N(Cc2cccc(C(F)(F)F)c2)C(=NCc2ccc(OC)cc2)NC1c1cccc(F)c1` (centres undefined), 13.2 µM; under `C[C@@H]1CN([C@H](C)CO)C(=O)c2cc(NS(=O)(=O)c3ccc(Cl)cc3)ccc2O[C@@H]1CN(C)Cc1ccc(Cl)c(Cl)c1`, 29.1 µM. `COc1ccc(S(=O)(=O)N=Nc2c(O)[nH]c3ccccc23)cc1`: the AC35 is 34.7 µM. Under `COc1ccccc1-c1ccc(OCCCN2CCC(C(O)(c3ccccc3)c3ccccc3)CC2)cc1` stands 13.3 µM. For `C[C@H](O)C#Cc1ccc2c(c1)O[C@@H](CN(C)Cc1ccc(-c3ccccc3)cc1)[C@H](C)CN([C@@H](C)CO)S2(=O)=O`, the AC35 is 6.15 µM and 8.6 µM. `C(=N\Nc1ccc2ccccc2n1)/c1ccc2c(c1)OCO2`: the AC35 was 5.76 µM. Then `CC(C)(C)c1ccc(Oc2ccc(NC(=O)C3CC=CCC3C(=O)O)cc2)cc1` (centres undefined), with 40.5 µM; and `Cc1ccc(C)c(S(=O)(=O)N2CCN(c3ncnc4sccc34)CC2)c1`, with 3.63 µM; and `C[C@H]1CN([C@@H](C)CO)C(=O)c2cc(NS(=O)(=O)c3ccc(Cl)cc3)ccc2O[C@H]1CN(C)Cc1ccc(Cl)c(Cl)c1`, with 40.5 µM. As to `CC(C)c1ccc(OCc2cccc(C(=O)N/N=C/c3cccnc3)c2)cc1`, the AC35 is 1.03 µM. Then `O=C(O)c1ccccc1C(=O)Nc1ccc(Oc2cccc3ccccc23)cc1`, with 2.28 µM.

Regarding `C#CCOCCOCCOCCNc1nc(N2CCN(C(=O)CCCCCCCCCCNC(=O)Cn3cc(C[C@@H](C)O)nn3)CC2)nc(N2CCN(C(=O)CCCCCCCCCCNC(=O)[C@H](CO)n3cc(CCCSC)nn3)CC2)n1`, the AC35 was 9.81 µM. Then `COc1cc2c(cc1NC(=O)CN(C)Cc1ccc(OC)c(OC)c1)oc1ccccc12`, with 8.33 µM; and `Cc1cccc(/C=N/Nc2ccc3ccccc3n2)c1`, with 1.6 µM; and `COC(=O)Cc1ccc(NC(=O)c2ccccc2Cl)cc1`, with 2.6 µM. Under `CCCCNC(=O)C(c1ccc(OCC(=O)OC)c(C(=O)OC)c1)N(CCOC)C(=O)CCCCCN1C(=O)NC(c2ccc(-c3ccccc3)cc2)C(C(=O)OCc2ccccc2)=C1C` (centres undefined) stands 40.4 µM; under `N#C[C@@H]1[C@H](c2ccc(C#Cc3ccccc3F)cc2)[C@@H](CO)N1C(=O)c1cccnc1`, 5.46 µM. Then `COc1ccc(-c2nc3c(s2)CCc2onc(-c4ccc(OC)cc4)c2-3)cc1`, with 7.59 µM.

Consider `COc1ccc(-c2cc(CNc3nc(NC(C)C)nc4cc(-c5ccccc5)sc34)on2)cc1`, for which the AC35 is 15.7 µM.

Consider `Nc1ccc(-c2cc3ccccc3c(=O)o2)cc1`, for which the AC35 is 0.485 µM. Turning to `Cc1c(-c2nc(-c3ccc(C(C)(C)C)cc3)no2)n(C)oc1=O`, the AC35 is 35.5 µM. Then `CN(C)c1ccc(N=Nc2ccc(C(=O)O)cc2)cc1`, with 5.73 µM; and `CC(=O)OC1CC(OC2C(O)CC(OC3C(O)CC(OC4CCC5(C)C(CCC6C5CCC5(C)C(C7=CC(=O)OC7)C(O)CC65O)C4)OC3C)OC2C)OC(C)C1OC1OC(CO)C(O)C(O)C1O` (centres undefined), with 0.812 µM. With `COC(=O)C[C@@H]1CC[C@@H]2[C@H](COc3ccc(NC(=O)Nc4ccc(C#N)cc4)cc3C(=O)N2C)O1`, the AC35 was 62.4 µM. As for `Cc1ccc2c(=O)n3c(nc2c1)C(Cc1ccc(O)cc1)NC(=O)c1cc2ccccc2cc1-3` (centres undefined), the AC35 is 6.25 µM. For the compound `CCCCc1c(Cc2ccccc2)ncn1CCc1ccccc1OC`, the AC35 was 20.8 µM.

Turning to `COc1ccccc1/C=C1\SC(=S)N(CCC(=O)Nc2cc(C)on2)C1=O`, the AC35 was 16.8 µM.

`O=C(O)CN1C(=O)/C(=C\c2ccccc2OCc2ccc(Cl)cc2Cl)SC1=S`: the AC35 is 13.7 µM.

As for `CN(C)c1ccc(/C=N/Nc2nc3ccccc3o2)cc1`, the AC35 was 5.35 µM. As for `C[C@@H]1O[C@@H](O[C@@H]2C=C3CC[C@@H]4C(CC[C@]5(C)[C@@H](c6ccc(=O)oc6)CC[C@]45O)[C@@]3(C)CC2)[C@H](O)[C@H](O)[C@H]1O` (some centres undefined), the AC35 was less than 0.03 µM. For `CCCn1c(C)cc(C(=O)CN2C(=O)c3ccccc3S2(=O)=O)c1C`, the AC35 is 1.25 µM. Then `CCCCCCCN(c1ccccc1)[C@@H]1C[C@H]2CCCC(=O)N3CC[C@@H](C1)[C@@H]23`, with 11.8 µM; and `CN(c1ccc(NC(=O)CCc2c[nH]c3ccccc23)cc1)c1ccccn1`, with 4.96 µM. Then `C[C@@H]1CN([C@@H](C)CO)C(=O)c2cccc(NC(=O)CCCCCC(=O)Nc3ccccc3N)c2O[C@@H]1CN(C)Cc1ccc(Oc2ccccc2)cc1`, with 6.74 µM; and `Cc1ccc(OCCNC(=O)c2cccc(S(=O)(=O)NCc3ccccc3)c2)cc1`, with 3.98 µM.

For the compound `N#CC1=C(N)Oc2cc(N)ccc2C1c1cccc(Br)c1` (centres undefined), the AC35 was 0.542 µM. With `COc1cccc(OC)c1C(=O)Nc1cc(C)nn1-c1nc2ccccc2[nH]1`, the AC35 is 26.7 µM. With `COC(=O)C[C@@H]1CC[C@@H]2[C@H](COc3ccc(NC(=O)c4ccccc4)cc3C(=O)N2C)O1`, the AC35 was 53.4 µM. For `Cc1ccc(S(=O)(=O)Nc2ccc3c(c2)C(=O)N([C@H](C)CO)C[C@@H](C)[C@@H](CN(C)Cc2ccc(C(=O)Nc4ccccc4N)cc2)O3)cc1`, the AC35 was 9.6 µM.

As for `O=C(O)c1ccccc1C(=O)Nc1ccc(Oc2ccc3ccccc3c2)cc1`, the AC35 was 5.69 µM. Then `COc1ccc(NC(=O)N2CCCCN3[C@@H](CO)[C@H](c4ccc(C5=CCCCC5)cc4)[C@@H]3C2)cc1`, with 15.8 µM; and `CCCCC[C@H](C)N1C[C@H](COCc2ccccc2)Oc2cc(N3CC[C@@H](N(C)C)C3)ccc2S1(=O)=O`, with 34.7 µM. Under `C[C@@H]1CN([C@@H](C)CO)C(=O)Cc2cc(N(C)C)ccc2O[C@H]1CN(C)Cc1ccc(C(=O)Nc2ccccc2N)cc1` stands 11.4 µM. As for `O=C(O)c1ccc(N/N=C/c2c(F)cccc2Cl)cc1`, the AC35 is 4.61 µM. Under `COc1ccc(C(=O)CN2C(=O)c3ccccc3S2(=O)=O)cc1` stands 0.279 µM. `COc1ccc(/C=C2\SC(=O)N(CCCC(=O)Nc3ccc(C(=O)O)cc3)C2=O)cc1`: the AC35 was 0.504 µM. For `O=C1NC2C(=CC(O)C(O)C2O)c2cc3c(cc21)OCO3` (centres undefined), the AC35 is 0.429 µM. Turning to `C[C@H]1CN([C@@H](C)CO)C(=O)c2cc(N(C)C)ccc2O[C@H]1CN(C)Cc1ccc(C(=O)Nc2ccccc2N)cc1`, the AC35 is 15 µM.

For `Cc1csc(NC(=O)CCc2c(C)nc3cc(-c4ccc(Cl)cc4)nn3c2C)n1`, the AC35 is 0.284 µM.

As for `C[C@@H]1O[C@@H](O[C@H]2C[C@@H](O)[C@]3(CO)[C@@H]4C(CC[C@]3(O)C2)[C@@]2(O)CC[C@H](C3COC(=O)C3)[C@@]2(C)C[C@H]4O)[C@H](O)[C@H](O)[C@H]1O` (some centres undefined), the AC35 was 1.97 µM. Then `CC12CCC3C(CCC4(O)CC(O)CCC34C=NO)C1(O)CCC2C1=COC(=O)C1` (centres undefined), with 0.293 µM; and `C[C@]12CC[C@H](O)C[C@H]1CC[C@@H]1[C@@H]2C[C@@H](O)[C@]2(C)[C@@H](C3=CC(=O)OC3)CC[C@]12O`, with 1 µM; and `CNC[C@H](CC1CCCCC1)NC[C@H](CO)NCCc1cccc(C(F)(F)F)c1`, with 13.7 µM.

On to `COC(=O)C[C@H]1CC[C@H]2[C@H](COc3ccc(NC(=O)Nc4cccc(Cl)c4)cc3C(=O)N2C)O1`, for which the AC35 was 44.1 µM. Under `COc1ccc(C=C2CCc3ccccc3C2=O)cc1` stands 10.4 µM.

Regarding `CCOC(=O)[C@]12Cc3ccc(C)cc3[C@H]1N(C1CCCCC1)C(=O)c1ccccc12`, the AC35 is 5.49 µM. Turning to `COCC(=O)Nc1ccc2c(c1)[C@@H]1C[C@@H](CC(=O)NCc3ccc(-c4ccccc4)cc3)O[C@@H](CO)[C@@H]1O2`, the AC35 was 10.1 µM.

For `C[C@H](CO)N1C[C@H](C)[C@H](CN(C)Cc2ccc(C(F)(F)F)cc2)Oc2ccc(NC(=O)CCCCCC(=O)Nc3ccccc3N)cc2CC1=O`, the AC35 was 6.04 µM.

As to `C(=Cc1cnc2ccccc2n1)c1ccc2c(c1)OCO2`, the AC35 was 1.12 µM. For `Cc1nc2cc(-c3ccc(Cl)cc3)nn2c(C)c1CCC(=O)NC(C)c1ccc2c(c1)OCCO2` (centres undefined), the AC35 is 0.847 µM.

The values above are taken from PubChem BioAssay AID686920 (Broad Institute, 2013).
